Experimental findings from patent publication US20100209486A1, “Method of enhancing CoenzymeQ10 levels in mammals” (priority 2009, published 2010) are described below.

Values joined by “and” are separate entries in the source; they are usually repeats but may differ in a detail not shown here. Identical values can stand only once. Marks after values point to notes of the source that are not given here.

Experiment [1] concerns isolated guinea pig hearts. Briefly: Myocardial infarct size (TTC staining) in isolated ischemic/reperfused guinea pig hearts. The experiment is classed as in vivo. The note with it: 5 mg/kg/day oral for 4 weeks; 30 min global ischemia, 120 min reperfusion; ratio infarct zone to risk zone; control 38±4.1%. The procedure: FIG. 2/A Effects of CoQ10 and CoQ9 on infarct size in isolated guinea pig hearts subjected to 30 min of ischemia followed by 120 min of reperfusion. The bars represent mean±SD of infarct size for control, CoQ10 and CoQ9 supplemented groups. *p<0.05 compared to the untreated age-matched ischemic/reperfused drug-free control (C) value. N=12 in each group.
Experimental studies were designed to determine if CoQ9 could protect guinea pig hearts from ischemia reperfusion injury. Myocardial ischemia reperfusion injury model is the most widely accepted experimental method for assessment of parameters related to cardio-protection. […] Cardioprotection was assessed by evaluating left ventricular function, ventricular arrhythmias, myocardial infarct size and cardiomyocyte apoptosis.
CoQ9 and CoQ10 treatment protects from cardiac infarction: Animal preparation, drug pretreatment and isolated working heart preparation were done as described in example 1. […] Using the NIH Image 1.61 image processing software, Infarct zones of each slice were traced and the respective areas were calculated in terms of pixels. The areas were measured by computerized planimetry software and these areas were multiplied by the weight of each slice, then the results summed up to obtain the weight of the risk zone. Infarct size was calculated as the ratio, in percent, of the infarct zone to the risk zone. […]

The subject of experiment [2] is isolated guinea pig hearts. Briefly: Recovery of post-ischemic cardiac function (HR, CF, AF, LVDP) in isolated working guinea pig hearts. Particulars: 5 mg/kg/day oral for 4 weeks; for aortic flow (AF), After 60 min of RE / coronary flow (CF), After 60 min of RE / heart rate (HR), After 60 min of RE / left ventricular developed pressure (LVDP), After 60 min of RE / aortic flow (AF), After 120 min of RE / heart rate (HR), After 120 min of RE / coronary flow (CF), After 120 min of RE / left ventricular developed pressure (LVDP), After 120 min of RE: 30 min ischemia; for aortic flow (AF), After 60 min of RE / coronary flow (CF), After 60 min of RE / heart rate (HR), After 60 min of RE / left ventricular developed pressure (LVDP), After 60 min of RE: 60 min reperfusion; for aortic flow (AF), After 120 min of RE / heart rate (HR), After 120 min of RE / coronary flow (CF), After 120 min of RE / left ventricular developed pressure (LVDP), After 120 min of RE: 120 min reperfusion; for aortic flow (AF), Before ISA / coronary flow (CF), Before ISA / heart rate (HR), Before ISA / left ventricular developed pressure (LVDP), Before ISA: isolated heart before ischemia. The experiment is classed as in vivo. The procedure: Experimental studies were designed to determine if CoQ9 could protect guinea pig hearts from ischemia reperfusion injury. Myocardial ischemia reperfusion injury model is the most widely accepted experimental method for assessment of parameters related to cardio-protection. Guinea pigs were randomly divided into three groups: Group II and Group III were supplemented with 5 mg/kg bodyweight of CoQ9 and CoQ10, respectively, for 4 weeks while Group I served as control (C). After 4 weeks, the guinea pigs were sacrificed and the isolated hearts were perfused via working mode. The isolated hearts were subjected to ischemia for 30 min followed by 2 hours of reperfusion. Cardioprotection was assessed by evaluating left ventricular function, ventricular arrhythmias, myocardial infarct size and cardiomyocyte apoptosis.
Similar types of post-ischemic recovery of HR, CF, and LVDP were registered (Table 1) in isolated hearts obtained from guinea pigs treated with 5 mg/kg/day of CoQ10 or CoQ9 for 4 weeks. The improvement in post-ischemic cardiac function (HR, CF, AF, and LVDP) was more pronounced in the CoQ9 treated group than in the CoQ10 treated group.
Protective effect of CoQ9 and CoQ10 against from Ventricular Fibrillation (VF): Healthy Male Hartley guinea pigs of about 350-400 gm body weight were randomly divided into three groups, Control, CoQ9 and CoQ10. The guinea pigs were given orally 5 mg/kg body weight [in 0.5 ml water] of vehicle only, CoQ9 or CoQ10 respectively by gavage once a day. […] Treatment was continued for 30 days, the animals had free access to food and water. After 30 days, all animals were anesthetized, heparinized and sacrificed. The hearts excised, and isolated for perfusion via Langendorff mode for 5 min of washout period of the Langendorff heart perfusion, the pulmonary vein was cannulated, and the heart was switched to the “working” mode via perfusion of the left atria (at a filling pressure of 17 cm of the buffer, 1.7 kPa) as it was described in detail elsewhere. Global ischemia was imposed by clamping the atrial and aortic cannulas. Epicardial ECG was recorded through out the experiment, by attaching two silver electrodes directly to the myocardium and data collected using a data acquisition system (ADInstruments, Powerlab, Castle Hill, Australia). ECGs were analyzed to determine ventricular fibrillation (VF) and ventricular tachycardia (VT). The first 10 min of reperfusion was done in Langendorf (‘nonworking’) mode in order to avoid the development of reperfusion-induced VT and VF during the ‘working’ heart reperfusion. After the initial 2 min of VT or/and VF (sustained VF) in Langendorff reperfusion, hearts were defibrillated (if it was necessary), reperfused for an additional 8 min in Langendorff mode, and switched to ‘working heart’ reperfusion, and myocardial function was recorded. The heart was considered to be in VF if an irregular undulating baseline was apparent on the ECG. The data of VT, VF and sinus rhythm show their durations (in seconds) within the first 120 s of nonworking Langendorff reperfusion. The incidences of reperfusion-induced ventricular fibrillation (VF) for CoQ9 and CoQ10 are depicted in FIG. 1. […] Incidence of VF was reduced from 92% (control group) to 25% (*p<0.05) and 8% (*p<0.05) with 5 mg/kg/day of CoQ10 and CoQ9, respectively.
CoQ9 and CoQ10 treatment improves post-ischemic cardiac function (HR, CF, AF, and LVDP): Animal preparation, drug pretreatment and isolated working heart preparation were done as described in example 1. The isolated hearts obtained from group II and Group III guinea pigs treated with 5 mg/kg/day of […], for 4 weeks were subjected to 30 min ischemia followed by 120 min of reperfusion. […]

With `COC1=C(OC)C(=O)C(C/C=C(\C)CC/C=C(\C)CC/C=C(\C)CC/C=C(\C)CC/C=C(\C)CC/C=C(\C)CC/C=C(\C)CC/C=C(\C)CCC=C(C)C)=C(C)C1=O` [CoQ9, Coenzyme Q9], in experiment [1], the infarct size was found to be 16.3±3.2%. Further, in experiment [2], the “aortic flow (AF), After 60 min of RE” value is 27 ± 1* ml/min; the “coronary flow (CF), After 60 min of RE” value is on record as 22 ± 2* ml/min; the “heart rate (HR), After 60 min of RE” value is on record as 240 ± 4* beats/min; the “left ventricular developed pressure (LVDP), After 60 min of RE” value is listed as 80 ± 2* mm Hg. For the same molecule, in experiment [2], the “aortic flow (AF), After 120 min of RE” value amounted to 26.0 ± 1.0 mL/min; the “heart rate (HR), After 120 min of RE” value was 233±4 beats/min; the “aortic flow (AF), Before ISA” value came out at 35 ± 2 mL/min; the “coronary flow (CF), Before ISA” value is 23 ± 2 mL/min. In experiment [2], the “heart rate (HR), Before ISA” value came to 248 ± 5 beats/min and the “left ventricular developed pressure (LVDP), Before ISA” value was determined as 106 ± 4 mm Hg. In addition, in experiment [2] (listed as CoQ 9), the “aortic flow (AF), After 120 min of RE” value was found to be 26 ± 1 mL/min; the “coronary flow (CF), After 120 min of RE” value was found to be 25 ± 2 mL/min; the “left ventricular developed pressure (LVDP), After 120 min of RE” value worked out at 75±2 mm Hg. In experiment [2] (listed as Q9), the “aortic flow (AF), After 120 min of RE” value is 26 ± 1* ml/min; the “coronary flow (CF), After 120 min of RE” value is listed as 25 ± 2* ml/min; the “heart rate (HR), After 120 min of RE” value was 233 ± 4* beats/min; the “left ventricular developed pressure (LVDP), After 120 min of RE” value is given as 75 ± 2* mm Hg. The “coronary flow (CF), Before ISA” value in experiment [2] (listed as Q9) stood at 23 ± 2 mL/min.

On to `COC1=C(OC)C(=O)C(C/C=C(\C)CC/C=C(\C)CC/C=C(\C)CC/C=C(\C)CC/C=C(\C)CC/C=C(\C)CC/C=C(\C)CC/C=C(\C)CC/C=C(\C)CCC=C(C)C)=C(C)C1=O` [CoQ10, Coenzyme Q10, reference compound], for which the infarct size in experiment [1] is reported as 21.1±5%. Moreover, in experiment [2], the “aortic flow (AF), After 60 min of RE” value is listed as 20 ± 2* ml/min; the “coronary flow (CF), After 60 min of RE” value is listed as 20 ± 1* ml/min; the “heart rate (HR), After 60 min of RE” value is given as 228 ± 3* beats/min; the “left ventricular developed pressure (LVDP), After 60 min of RE” value is on record as 71 ± 3* mm Hg. Further, in experiment [2], the “aortic flow (AF), After 120 min of RE” value was 18.0 ± 2.0 mL/min and 18 ± 2 mL/min; the “coronary flow (CF), After 120 min of RE” value is 19 ± 1 mL/min; the “heart rate (HR), After 120 min of RE” value is recorded as 217±3 beats/min; the “left ventricular developed pressure (LVDP), After 120 min of RE” value turned out to be 64±3 mm Hg. For the same molecule, in experiment [2], the “aortic flow (AF), Before ISA” value came out at 34 ± 2 mL/min; the “heart rate (HR), Before ISA” value turned out to be 261 ± 6 beats/min; the “left ventricular developed pressure (LVDP), Before ISA” value is 100 ± 5 mm Hg. Besides, in experiment [2] (listed as Q10), the “aortic flow (AF), After 120 min of RE” value is 18 ± 2* ml/min; the “coronary flow (CF), After 120 min of RE” value is listed as 19 ± 1* ml/min; the “heart rate (HR), After 120 min of RE” value is 217 ± 3* beats/min; the “left ventricular developed pressure (LVDP), After 120 min of RE” value is recorded as 64 ± 3* mm Hg. Also, the “coronary flow (CF), Before ISA” value in experiment [2] (listed as Q10) amounted to 25 ± 2 mL/min. For the same molecule, in experiment [2] (listed as CoQ 10), the “coronary flow (CF), Before ISA” value was 25 ± 2 mL/min.
